Tests used:
Assay in all cases: relative viability (nuclei count vs DMSO), 5 days (fraction); higher = more cells survive
[1] = compound: Cc1cc([C@@H](C)Nc2ccccc2C(=O)O)c2nc(N3CCOCC3)cc(=O)n2c1 [AZD6482] + COc1cccc2cc(-c3nc([C@H]4CC[C@H](C(=O)O)CC4)n4ncnc(N)c34)[nH]c12 [OSI-027] (partner 0.5 µM)
In short: (§1)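 Lung cancer cell lines were seeded in 1536-well plates and dosed by pin tool the next day, with either a single drug or a fixed anchor-drug dose combined with five library-drug doses (not always all listed) spaced in √10 steps. Five days later, one step fixed the cells and stained their nuclei (final 0.05% Triton X-100, 1% formaldehyde, 1 ug/ml Hoechst), and nuclei were counted on 4× images. Relative viability is the nuclei count in treated wells divided by the count in vehicle wells, and each value is the median of duplicate plates.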

[2] = compound: Cc1cc([C@@H](C)Nc2ccccc2C(=O)O)c2nc(N3CCOCC3)cc(=O)n2c1 [AZD6482] + CC(=O)c1c(C)c2cnc(Nc3ccc(N4CCNCC4)cn3)nc2n(C2CCCC2)c1=O [Palbociclib] (partner 0.5 µM)
In short: as §1

[3] = compound: COc1cc2nc(N3CCCN(C)CC3)nc(NC3CCN(Cc4ccccc4)CC3)c2cc1OC + N=C(N)NC(=N)NCCc1ccccc1 [Phenformin] (partner 250 µM)
In short: as §1

[4] = compound: Cc1cc([C@@H](C)Nc2ccccc2C(=O)O)c2nc(N3CCOCC3)cc(=O)n2c1 [AZD6482] + CCNC(=O)c1noc(-c2cc(C(C)C)c(O)cc2O)c1-c1ccc(CN2CCOCC2)cc1 [Luminespib] (partner 0.01 µM)
In short: as §1

## UMC-11
[1]; first compound 0.08 µM
  relative viability: 0.448
[1]; first compound 0.253 µM
  relative viability: 0.464
[1]; first compound 0.8 µM
  relative viability: 0.497
[1]; first compound 2.53 µM
  relative viability: 0.459
[1]; first compound 8 µM
  relative viability: 0.47
[2]; first compound 0.08 µM
  relative viability: 0.342
[2]; first compound 0.253 µM
  relative viability: 0.297
[2]; first compound 0.8 µM
  relative viability: 0.321
[2]; first compound 8 µM
  relative viability: 0.324
[3]; first compound 0.2 µM
  relative viability: 0.322
[3]; first compound 0.6325 µM
  relative viability: 0.346
[3]; first compound 2 µM
  relative viability: 0.352
[3]; first compound 6.325 µM
  relative viability: 0.243
[4]; first compound 0.08 µM
  relative viability: 0.986
[4]; first compound 0.253 µM
  relative viability: 0.994
[4]; first compound 0.8 µM
  relative viability: 0.929
[4]; first compound 2.53 µM
  relative viability: 0.869
[4]; first compound 8 µM
  relative viability: 1.26

From the supplement of paper PMC10307832
